Experiments:
LP-1 = system: LP-1; set-up: method as in earlier work; details: cited from earlier work
AEBS [1] = target: T1, AEBS (Homo sapiens, UniProt Q15125+Q9UBM7); assay: Binding to the AEBS in HMCLs; set-up: endogenous in cells; host or cells: RPMI 8226 and LP-1 human multiple myeloma cell lines
RPMI 8226 = system: RPMI 8226; set-up: method as in earlier work; details: cited from earlier work
U266 = system: U266; set-up: method as in earlier work; details: cited from earlier work
AEBS [2] = target: T1, AEBS; assay: Binding to the AEBS in LP1; set-up: endogenous in cells; host or cells: LP-1 human multiple myeloma cell lines
NCI-H929 = system: NCI-H929; set-up: method as in earlier work; details: cited from earlier work
HMCLs = assay: Free sterol accumulation in HMCLs; assay type: cell-based, human
Description: (§1) The organic layer was reduced to dryness under a flux of argon and the residue was resuspended in ethanol. Sterols were analyzed by liquid chromatography and gas-liquid chromatography as described before. Neutral lipids and sphingomyelin analyses were done according to previously published procedures.

OPM-2 = system: OPM-2; set-up: method as in earlier work; details: cited from earlier work
Karpas 620 = system: Karpas 620; set-up: method as in earlier work; details: cited from earlier work
ChEH [3] = target: T2, ChEH (Homo sapiens, UniProt Q15125+Q9UBM7); assay: ChEH activity in HMCLs (TLC); assay type: cell-based; set-up: endogenous in cells; host or cells: RPMI 8226 and LP-1 human multiple myeloma cell lines; details: for ChEH activity, conversion of 5,6-EC into CT by TLC: OHT, Tam, RU 58668 10 μM, PBPE 40 μM
T2 sequence (Q15125 whole entry): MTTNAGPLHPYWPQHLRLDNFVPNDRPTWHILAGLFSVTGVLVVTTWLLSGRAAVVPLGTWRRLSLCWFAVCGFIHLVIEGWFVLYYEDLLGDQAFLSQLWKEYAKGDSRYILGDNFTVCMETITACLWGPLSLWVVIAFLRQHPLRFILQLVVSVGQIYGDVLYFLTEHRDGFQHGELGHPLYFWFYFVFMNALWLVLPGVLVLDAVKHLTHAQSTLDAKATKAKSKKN
T2 sequence (Q9UBM7 whole entry): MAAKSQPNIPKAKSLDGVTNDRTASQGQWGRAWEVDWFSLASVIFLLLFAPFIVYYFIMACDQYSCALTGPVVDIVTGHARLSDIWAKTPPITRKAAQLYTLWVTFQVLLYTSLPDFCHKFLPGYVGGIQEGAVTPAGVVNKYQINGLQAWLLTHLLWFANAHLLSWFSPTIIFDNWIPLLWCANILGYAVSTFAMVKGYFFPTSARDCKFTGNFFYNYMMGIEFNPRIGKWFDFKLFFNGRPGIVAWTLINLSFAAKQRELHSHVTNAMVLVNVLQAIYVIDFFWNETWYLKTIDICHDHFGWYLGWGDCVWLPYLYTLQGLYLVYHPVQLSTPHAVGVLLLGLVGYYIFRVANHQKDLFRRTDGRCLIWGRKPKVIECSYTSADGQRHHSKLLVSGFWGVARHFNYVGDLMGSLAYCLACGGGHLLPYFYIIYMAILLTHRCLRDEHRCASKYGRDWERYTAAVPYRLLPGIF
Description: (§2) Cells were then pelleted and extracted with chloroform/methanol (2/1). The organic layer was reduced to dryness under a flux of argon and the residue was resuspended in EtOH. Samples were applied to thin layer chromatography (TLC) plates and developed using ethyl acetate as previously described. The radioactive metabolites were visualized by autoradiography using Kodak Biomax MS films.

ChEH [4] = target: T2, ChEH; assay: ChEH activity measured on intact cells; assay type: cell-based; set-up: endogenous in cells; host or cells: LP-1 human multiple myeloma cell lines
Description: as §2

RPMI 8226 cells [5] = assay: Electron microscopy for MLBs, AVs and UVs; assay type: cell-based, human; details: 48 h, 10 μM drug (PBPE 40 μM)
AEBS [6] = target: T1, AEBS; assay: Binding to the AEBS in RPMI 8226
ChEH [7] = target: T2, ChEH; assay: ChEH activity measured on intact cells; assay type: cell-based; set-up: endogenous in cells; host or cells: RPMI 8226 human multiple myeloma cell lines
Description: as §2

LP-1 cells [8] = assay: Electron microscopy for MLBs, AVs and UVs; assay type: cell-based, human; details: 48 h, 10 μM drug (PBPE 40 μM)
MM tumors = system: MM tumors; set-up: method as in PMID 20033476, PMID 16753295; details: xenografted mice bearing MM tumors; cited from earlier work
RPMI 8226 and LP-1 cells [9] = assay: Cell viability, MTT assay; assay type: cell-based, human; details: 1 μM LY 294002, 10 nM everolimus, 10 μM RU 39411, 40 μM PBPE
Description: RPMI 8226 were obtained from R Bataille (CLCC, Nantes, France) and LP-1 cells from D Bouscary (Institut Cochin, Paris, France). At their arrival, the identity of cells was checked by karyotyping and surface markers expression; cells were then amplified and frozen. HMCLs were maintained in RPMI 1640 medium (Lonza, Basel, Switzerland) supplemented with 2 mM L-glutamine (Lonza) and 10% FCS (fetal calf serum) (PAA Laboratories, Velizy-Villacoublay, France). In experiments with AEs, cells were cultured in phenol red-free medium plus FCS. AEs were dissolved in ethanol (EtOH) to obtain 10 mM stock solution and then diluted into medium immediately before use. For controls, vehicle was added at the same final concentration. Cell viability was determined using CellTiter 96® AQueous One Solution (MTT [([3]-([4],[5])-dimethylthiazol-[2]-yl)-[2],[5]-diphenyltetrazolium bromide] assay, Promega, Charbonnières, France) according to the supplier's instructions.

RPMI 8226 and LP-1 cells [10] = assay: Degradation of long-lived proteins; assay type: cell-based, human; details: both cell lines, 10 μM OHT, 40 μM PBPE
Description: The degradation of long-lived proteins was measured as described previously. Briefly, HMCLs were incubated for 24 h at 37°C with 0.2 μCi/ml of L-[[14]C]valine in complete medium. Cells were then washed resuspended in medium with no nutrients but supplemented with 10 mM valine. After the first h of incubation, the chase medium was replaced by complete medium and the incubation continued for 5 h. […] Radiolabeled proteins present in the chase medium as well as in cells were precipitated with 10% trichloroacetic acid (v/v) at 4°C. Radioactivity was measured by scintillation counting. The rate of protein degradation was calculated from the ratio of radioactivity in the medium to that of precipitated cell fraction.

RPMI 8226 and LP-1 cells [11] = assay: Intracellular free sterol, TG and SM contents; assay type: cell-based, human; details: 5 µM OHT, 20 µM PBPE or 5 µM RU 58668 for three days
Description: as §1

RPMI 8226 cells [12] = assay: Sterols accumulated in cells, HPLC and GC/MS; assay type: cell-based, human; details: RPMI 8226, 48 h incubation
Description: as §1

LP-1 cells [13] = assay: Sterols accumulated in cells, HPLC and GC/MS; assay type: cell-based, human; details: LP1, 48 h incubation
Description: as §1

RPMI 8226 cells [14] = assay: Presence of 5,6-EC in cells by GC/MS; assay type: cell-based, human; details: 48 h, 10 μM drug (PBPE 40 μM)
Description: as §1

LP-1 cells [15] = assay: Presence of 5,6-EC in cells by GC/MS; assay type: cell-based, human; details: 48 h, 10 μM drug (PBPE 40 μM)
Description: as §1

[16] = RPMI 8226, presence of 500 μM Vit E

T1 sequence (Q15125 whole entry): as the sequence (Q15125 whole entry) above
T1 sequence (Q9UBM7 whole entry): as the sequence (Q9UBM7 whole entry) above

| SMILES | affinity for the AEBS (AEBS [1]) | Ki (AEBS [2]) | free sterol accumulated (HMCLs) | ChEH activity, conversion of 5,6-EC into CT by TLC (ChEH [3]) | AV (RPMI 8226 cells [5]; RPMI 8226, absence of Vit E) | MLB (RPMI 8226 cells [5]; RPMI 8226, absence of Vit E) | UV (RPMI 8226 cells [5]; RPMI 8226, absence of Vit E) | AV (RPMI 8226 cells [5]; [16]) | MLB (RPMI 8226 cells [5]; [16]) | UV (RPMI 8226 cells [5]; [16]) | Ki (AEBS [6]) | AV (LP-1 cells [8]; LP-1, absence of Vit E) | MLB (LP-1 cells [8]; LP-1, absence of Vit E) | UV (LP-1 cells [8]; LP-1, absence of Vit E) | AV (LP-1 cells [8]; LP-1, presence of 500 μM Vit E) | MLB (LP-1 cells [8]; LP-1, presence of 500 μM Vit E) | UV (LP-1 cells [8]; LP-1, presence of 500 μM Vit E) | other results |
| --- | --- | --- | --- | --- | --- | --- | --- | --- | --- | --- | --- | --- | --- | --- | --- | --- | --- | --- |
| C[C@]12C[C@H](c3ccc(OCCCCCS(=O)(=O)CCCC(F)(F)C(F)(F)F)cc3)[C@@H]3c4ccc(O)cc4CC[C@H]3[C@@H]1CC[C@@H]2O [RU 58668, 17β-11-[4-[5-[([4],[4],[5],[5],[5]-pentafluoropentyl)-sulfonyl]-pentyloxy]-phenyl]estra-1,3,5(10)-triene,3,17-diol] | no measurable affinity | > 10000 nM | did not induce free sterol accumulation | CT accumulated | + + (The sign + means that 80 % cells were positive and contained at least 5 vesicles) | − − (otherwise they were considered as negative (-)) | − − (otherwise they were considered as negative (-)) | + + (The sign + means that 80 % cells were positive and contained at least 5 vesicles) | − − (otherwise they were considered as negative (-)) | − − (otherwise they were considered as negative (-)) | > 10000 nM | + + (The sign + means that 80 % cells were positive and contained at least 5 vesicles) | − − (otherwise they were considered as negative (-)) | − − (otherwise they were considered as negative (-)) | + + (The sign + means that 80 % cells were positive and contained at least 5 vesicles) | − − (otherwise they were considered as negative (-)) | − − (otherwise they were considered as negative (-)) | SERM and SERDs effects on MM cell lines (LP-1): G1-arrest; SERM and SERDs effects on MM cell lines (RPMI 8226): Apoptosis; SERM and SERDs effects on MM cell lines (U266): No response; SERM and SERDs effects on MM cell lines (NCI-H929): Apoptosis; SERM and SERDs effects on MM cell lines (OPM-2): G1-arrest; SERM and SERDs effects on MM cell lines (Karpas 620): No response; IC50 (ChEH [3]; read-out: concentration up to which ChEH was not inhibited): > 10000 nM; IC50 (ChEH [4]; LP-1 intact cells, [14C]-5,6-EC 0.6 μM, drugs 1 nM to 10 μM over 24 h, read-out: ChEH IC50): > 10000 nM; IC50 (ChEH [7]; RPMI 8226 intact cells, [14C]-5,6-EC 0.6 μM, drugs 1 nM to 10 μM over 24 h, read-out: ChEH IC50): > 10000 nM; tumor growth (MM tumors): block tumor growth |
| Cl.c1ccc(Cc2ccc(OCCN3CCCC3)cc2)cc1 [PBPE, 1-(2-(4-benzylphenoxy)-ethyl)-pyrrolidin-HCl] | high affinity | 3.2 ± 2.2 nM | accumulation zymostenol | ChEH activity was inhibited | + + (The sign + means that 80 % cells were positive and contained at least 5 vesicles) | + + (The sign + means that 80 % cells were positive and contained at least 5 vesicles) | + (The sign + means that 80 % cells were positive and contained at least 5 vesicles) | + + (The sign + means that 80 % cells were positive and contained at least 5 vesicles) | + + (The sign + means that 80 % cells were positive and contained at least 5 vesicles) | − (otherwise they were considered as negative (-)) | 4.2 ± 1.8 nM | + + (The sign + means that 80 % cells were positive and contained at least 5 vesicles) | + + (The sign + means that 80 % cells were positive and contained at least 5 vesicles) | + (The sign + means that 80 % cells were positive and contained at least 5 vesicles) | + + (The sign + means that 80 % cells were positive and contained at least 5 vesicles) | + + (The sign + means that 80 % cells were positive and contained at least 5 vesicles) | − (otherwise they were considered as negative (-)) | cell death (viable cells, MTT assay) (RPMI 8226 and LP-1 cells [9]): cell death that was strictly caspase-independent; rate of long-lived protein degradation (RPMI 8226 and LP-1 cells [10]): stimulated; intracellular free sterol, triacylglycerol (TG) and sphingomyelin (SM) contents (RPMI 8226 and LP-1 cells [11]): increases; Desmosterol (RPMI 8226 cells [12]): 1.4 percent by the weight of total sterol; Zymostenol (RPMI 8226 cells [12]): 28.7 percent by the weight of total sterol; Desmosterol (LP-1 cells [13]): 1.2 percent by the weight of total sterol; Zymostenol (LP-1 cells [13]): 31.1 percent by the weight of total sterol; IC50 (ChEH [4]): 884 ± 32 nM; 5,6-EC (RPMI 8226 cells [14]; RPMI 8226, absence of Vit E): +; 5,6-EC (RPMI 8226 cells [14]; [16]): −; 5,6-EC (LP-1 cells [15]; LP-1, absence of Vit E): +; 5,6-EC (LP-1 cells [15]; LP-1, presence of 500 μM Vit E): −; IC50 (ChEH [7]): 927 ± 24 nM |
